Test results published in US10435361B2, “Kinase inhibitors” (Topivert Pharma Limited, priority 2013, dated 2019).

Assays:
[1] = Plasma pharmacokinetics in rats, single intravenous or oral administration; format: in vivo; conditions: male, Wistar, rat; for clearance: rats, intravenous 0.25 mg/kg
Description: Studies were conducted by Sai Life Sciences (Hinjewadi, Pune, India) to investigate the plasma pharmacokinetics and total colon tissue distribution of compounds of the invention. In particular, pharmacokinetic studies were carried out in: • male C57BL/6 mice, following a single oral administration; and • male Wistar rats following a single intravenous or oral administration.

[2] = tested on: Salmonella typhimurium TA98; assay: Bacterial reverse mutation screen, strain TA98; format: cell-based; conditions: presence or absence of S-9 mix; up to 1000 μg/plate analysable
Description: (§1) Studies were conducted by Sequani (Ledbury, Herefordshire, UK) to assess compounds of the invention for their ability to induce mutations in two histidine dependent auxotrophic mutants of Salmonella typhimurium, strains TA98 and TA100 in vitro.
(§2) The mutation screen was conducted using the plate incorporation method and was performed in both the presence and absence of S-9 mix (a liver post-mitochondrial fraction derived from the livers of Aroclor 1254 treated rats). The bacteria were exposed to test compounds dissolved in dimethylsulphoxide, which solvent was also used as the negative control. The dose levels used were 0.32, 1.6, 8, 40, 200, 1000 or 5000 μg/plate.
(§3) Precipitation was also noted in both strains at 1000 μg/plate in the presence and absence of S-9 mix.

HT29 cells = assay: IL-1β-induced IL-8 release in HT29 cells; format: cell-based; conditions: Homo sapiens, HT-29, assay (d), read-out: IC50 Values for Inhibition of Cytokine Release HT29 cells IL-8
Description: HT29 cells, a human colon adenocarcinoma cell line, are plated in a 96 well plate (24 hr) and pre-treated with compounds at the desired concentration for 2 hours before addition of 5 ng/mL of IL-1β (Abcam) for 24 hours. Supernatants are harvested for IL-8 quantification by Sandwich ELISA (Duo-set, R&D System). The IC50 is determined from the dose response curve.

PBMCs [3] = assay: LPS-induced TNFα/IL-8 release in PBMC cells; format: cell-based; conditions: Homo sapiens, assay (b)
Method in brief: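 Healthy-donor PBMCs isolated by density gradient were pretreated with compound for 2 h, then stimulated with 1 ng/mL LPS (E. coli 0111:B4) for 24 h at 37° C., 5% CO2. IL-8 and TNFα in supernatants measured by sandwich ELISA.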

SCID animals = assay: Adoptive transfer in mice (CD45RBhigh cells into SCID animals); format: in vivo; conditions: for % Inhibition: Table 6a, inhibition of the induction window between naïve and vehicle animals; for levels of pro-inflammatory cytokines in samples of colon tissue: adoptive transfer model
Description: On Study day 0, female Balb/C mice are terminated and spleens obtained for CD45RB^high cell isolation (Using SCID IBD cell Separation protocol). Approximately 4×10^5 cells/mL CD45RB^high cells are then injected intraperitoneally (100 μL/mouse) into female SCID animals. On study day 14, mice are weighed and randomized into treatment groups based on body weight. On Day 14, compounds are administered BID, via oral gavage, in a peanut oil vehicle at the dose levels outlined below in Tables 6a and 6b and a dose volume of 5 mL/kg. Treatment continues until study day 42, at which point the animals are necropsied 4 hours after the morning administration. The colon length and weight are recorded and used as a secondary endpoint in the study as a measurement of colon oedema. The colon is then divided into six cross-sections, four of which are used for histopathology scoring (primary endpoint) and two are homogenised for cytokine analysis. Data shown is the % inhibition of the induction window between naïve animals and vehicle animals, where higher inhibition implies closer to the non-diseased, naïve, phenotype.

[4] = tested on: Salmonella typhimurium TA100; assay: Bacterial reverse mutation screen, strain TA100; format: cell-based; conditions: presence or absence of S-9 mix; up to 1000 μg/plate analysable
Description: as §1, §2, §3

[5] = Hydrolytic stability study (DMSO/water 3:1, 60° C.); format: physicochemical
Description: Chemical stability of compounds of the invention was assessed in a mixture of DMSO and water (3:1) at a test compound concentration of 1 mg/mL
Agilent, Waters X-Select C18, 2.5 μm, 4.6×30 mm column, 4 min method, 5-95%
MeCN/water (0.1% formic acid).
Column Oven Temperature 40° C.
Sample Preparation • A 1.0 mg sample of test compound was dissolved in 750 μL of DMSO. Water (250 μL) was added slowly, ensuring no precipitation occurred.
Recording Stability • A 50 μL aliquot of the test solution was removed and analysed in duplicate by 5 μL HPLC injections. The peak area for the test compound was recorded following manual integration of the corresponding UV trace. • The test solution was heated to 60° C., with stirring, and 50 μL aliquots removed for HPLC analysis at 5 and 24 h timepoints.

BDF1 mice = assay: TNBS-induced colitis in mice; format: in vivo; conditions: conducted over 2 days; vehicle corn oil/transcutol/maisine/cremophor ELP
Description: Non-fasted, 10-12 week old, male BDF1 mice are dosed by oral gavage twice daily with either vehicle (5 mL/kg), reference item (Budesonide 2.5 mg/kg) or test compound (1 or 5 mg/kg) one day before (Day −1) stimulation of the inflammatory response by treatment with 2,4,6-trinitrobenzenesulphonic acid (TNBS) (15 mg/mL in 50% ethanol/50% saline). On Day 0 of the study TNBS (200 μL) is administered intra-colonically via a plastic catheter with BID dosing of the vehicle, reference or test compound continuing for 2 or 4 days. During the study, animals are weighed every day and stool observations are made and recorded as a score, based on stool consistency. At the time of sacrifice on Day 2 (or Day 4), the large intestine is removed and the length and weight recorded. Sections of the colon are taken for histopathology scoring to determine disease severity.

PBMCs [6] = assay: IL-2 and IFN gamma release in CD3/CD28 stimulated PBMC cells; format: cell-based; conditions: Homo sapiens, assay (c)
Method in brief: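 Healthy-donor PBMCs, density-gradient isolated, stimulated on plates pre-coated with anti-CD3 (0.3 μg/mL) and anti-CD28 (3 μg/mL) antibodies, with compound, for 3 days under standard culture conditions. IC50 derived from the dose-response curve.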

[7] = read-out: IC50 Values for Inhibition of Cytokine Release PBMCs IL-8
[8] = read-out: IC50 Values for Inhibition of Cytokine Release PBMCs IFNγ
[9] = read-out: IC50 Values for Inhibition of Cytokine Release PBMCs IL-2
[10] = po, 5 mg/kg, read-out: Median plasma concentration

| SMILES | clearance [1] [mL/min/kg] | increases in revertant colonies, strain TA98 [2] | IC50 (HT29 cells) [nM] | IC50 (PBMCs [3]; [7]) [nM] | levels of pro-inflammatory cytokines in samples of colon tissue (SCID animals) | increases in revertant colonies, strain TA100 [4] | % Parent Remaining ([5]; DMSO/water 3:1, 0 min) [%] | activity in TNBS-induced colitis (histopathology analysis) (BDF1 mice) | IC50 (PBMCs [6]; [8]) [nM] | IC50 (PBMCs [6]; [9]) [nM] | also measured |
| --- | --- | --- | --- | --- | --- | --- | --- | --- | --- | --- | --- |
| COCCOCCOCCOc1cc(Nc2nccc(Oc3ccc(NC(=O)Nc4cc(C(C)(C)C)cc(NS(C)(=O)=O)c4OC)c4ccccc34)n2)cc(OC)c1 [Example 4, N-(5-(tert-Butyl)-2-methoxy-3-(3-(4-((2-((3-methoxy-5-(2-(2-(2-methoxyethoxy)ethoxy)-ethoxy)phenyl)amino)pyrimidin-4-yl)oxy)naphthalen-1-yl)ureido)phenyl)methanesulfonamide] | 7.9 | no dose-related or statistically significant increases in revertant colonies | 4.9 | 1.4 | significantly reduced | no dose-related or statistically significant increases in revertant colonies | 100 | displayed substantial activity | 4.2 | 40.5 | IC50 (PBMCs [3]; read-out: IC50 Values for Inhibition of Cytokine Release PBMCs TNFα): 0.7 nM; % Inhibition (SCID animals; 0.3 mg/kg BID oral gavage): 62%; % Inhibition (SCID animals; 1 mg/kg BID oral gavage): 110% |
| C#Cc1cc(Nc2nccc(Oc3ccc(NC(=O)Nc4cc(C(C)(C)C)cc(NS(C)(=O)=O)c4OC)c4ccccc34)n2)cc(C(=O)NCCOCCOCCOC)c1 [Example 16, 3-((4-((4-(3-(5-(tert-Butyl)-2-methoxy-3-(methylsulfonamido)phenyl)ureido)naphthalen-1-yl)oxy)pyrimidin-2-yl)amino)-5-ethynyl-N-(2-(2-(2-methoxyethoxy)ethoxy)ethyl)benzamide] | 4.8 | no dose-related or statistically significant increases in revertant colonies | 8 | 1.5 | significantly reduced | no dose-related or statistically significant increases in revertant colonies | 100 | displayed substantial activity | 7.3 | 74 | concentration at 0.25 h [1, 10]: 0 ng/mL; concentration at 0.5 h [1, 10]: 0 ng/mL; concentration at 1 h [1, 10]: 0 ng/mL; concentration at 2 h [1, 10]: 0 ng/mL; concentration at 4 h [1, 10]: 0 ng/mL; concentration at 6 h [1, 10]: 0 ng/mL; concentration at 8 h [1, 10]: 0 ng/mL; concentration at 12 h [1, 10]: 0 ng/mL; concentration at 24 h [1, 10]: 0 ng/mL; activity in adoptive transfer model (ratios of colon weight to length) (SCID animals; end of the study): displayed significant activity; % Parent Remaining ([5]; DMSO/water 3:1, 60° C., 300 min): 100%; % Parent Remaining ([5]; DMSO/water 3:1, 60° C., 1440 min): 100% |
| COc1cc(Nc2cc(Oc3ccc(NC(=O)Nc4cc(C(C)(C)C)cc(NS(C)(=O)=O)c4OC)c4ccccc34)ccn2)cc(C(=O)NCCN2CCOCC2)c1 [Example 27, 3-((4-((4-(3-(5-(tert-Butyl)-2-methoxy-3-(methylsulfonamido)phenyl)ureido)naphthalen-1-yl)oxy)pyridin-2-yl)amino)-5-methoxy-N-(2-morpholinoethyl)benzamide] | 7.1 | no dose-related or statistically significant increases in revertant colonies | 8.3 | 1.9 | significantly reduced | no dose-related or statistically significant increases in revertant colonies | 100 | displayed substantial activity | 11 | 46.3 | % Inhibition (SCID animals; 3 mg/kg BID oral gavage): 99% |
